Reference: patent publication US20230339970A1, “CASEIN KINASE 1 DELTA MODULATORS” (priority 2020, published 2023)

Tests used:
human CSNK1D = target: T1, human CSNK1D (Homo sapiens, UniProt P48730); assay: Whole Cell nBRET CSNK1D Binding Assay; conditions: living CHO cells stably expressing human CSNK1D tagged with nanoluciferase; NanoBret tracer 130 nM; 2 hours at 37 C
T1 construct: expressed in transfected cells

[1] = target: T2, human recombinant GST cleaved CSNK1D (Homo sapiens, UniProt P48730); assay: Purified Enzyme Assay (ADP-Glo CSNK1D Kinase Assay); assay type: biochemical; conditions: 2 nM CSNK1D; peptide substrate 150 μM; ATP 20 μM; 45 minutes at room temperature
T2 construct: GST (cleaved yes); purchased University of Dundee clone DU 19064
T2 sequence (P48730 whole entry): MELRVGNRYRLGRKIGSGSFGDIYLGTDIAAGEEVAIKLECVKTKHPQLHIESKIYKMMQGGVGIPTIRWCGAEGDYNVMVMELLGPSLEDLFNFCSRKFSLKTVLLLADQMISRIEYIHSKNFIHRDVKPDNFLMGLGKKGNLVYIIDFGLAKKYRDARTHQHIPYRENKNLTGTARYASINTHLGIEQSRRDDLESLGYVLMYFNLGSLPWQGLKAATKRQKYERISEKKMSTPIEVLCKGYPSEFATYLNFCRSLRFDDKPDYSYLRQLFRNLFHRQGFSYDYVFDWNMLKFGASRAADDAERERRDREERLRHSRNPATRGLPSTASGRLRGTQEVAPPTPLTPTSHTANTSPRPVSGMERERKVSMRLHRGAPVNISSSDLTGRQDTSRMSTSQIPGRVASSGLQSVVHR
Procedure: In this assay, CSNK1D phosphorylates a substrate peptide PLSRTL-pS-VASLPGL in the presence of ATP. […] This assay monitors CSNK1D kinase activity by measuring the amount of ADP produced in the assay.
The substrate mix is added to each well of a low volume, 384-well, white opaque plate. Test compounds were diluted in HBSS and added in a dose-response to the plate.
The total volume of each reaction is 5 ul (2 μL of substrate mix, 1 μL of diluted compounds, and 2 μL of human recombinant CSNK1D). The plates are incubated for 45 minutes at room temperature.
ADP was quantified using the ADP-Glo™ Kinase Assay. ADP-Glo Reagent (5 μL) was added to each well. After a 1 hour incubation at room temperature, Kinase Detection Reagent (10 μL) was added to each well and incubated for 30 minutes. […] The raw data from the Envision is used to calculate percent activity.

T1 sequence (P48730 whole entry): as above

[2H]C([2H])([2H])C1(C([2H])([2H])[2H])Cn2nc(-c3ccc(F)cn3)c(-c3c(Cl)c(C)nc4[nH]ncc34)c2CO1 [Example 407, 3-(5-Chloro-6-methyl-1H-pyrazolo[3,4-b]pyridin-4-yl)-2-(5-fluoropyridin-2-yl)-6,6-bis(methyl-d3)-6,7-dihydro-4H-pyrazolo[5,1-c][1,4]oxazine]
IC50 (human CSNK1D): 219 nM
IC50 [1]: 25 nM

Cc1cc(-c2c(-c3ccc(F)cc3)nn3c2OCCCC3)c2cn[nH]c2n1 [Example 217, 2-(4-Fluorophenyl)-3-(6-methyl-1H-pyrazolo[3,4-b]pyridin-4-yl)-5,6,7,8-tetrahydropyrazolo[5,1-b][1,3]oxazepane]
IC50 (human CSNK1D): 25 nM
IC50 [1]: 2 nM

Fc1ccc(-c2nn3c(c2-c2ccnc4[nH]ncc24)C[C@@H]2C[C@@H]23)nc1 [Example 26, (4aS,5aS)-2-(5-Fluoropyridin-2-yl)-3-(1H-pyrazolo[3,4-b]pyridin-4-yl)-4,4a,5,5a-tetrahydrocyclopropa[4,5]pyrrolo[1,2-b]pyrazole]
IC50 (human CSNK1D): 32 nM
IC50 [1]: 4 nM

COC[C@@]1(F)CCc2c(-c3cc(C)nc4[nH]ncc34)c(-c3ccc(F)cn3)nn2C1 (single isomer, unassigned) [Example 54, (*R)-4-(6-Fluoro-2-(5-fluoropyridin-2-yl)-6-(methoxymethyl)-4,5,6,7-tetrahydropyrazolo[1,5-a]pyridin-3-yl)-6-methyl-1H-pyrazolo[3,4-b]pyridine]
IC50 (human CSNK1D): 3740 nM
IC50 [1]: 84 nM

Fc1ccc(-c2nn3c(c2-c2ccnc4[nH]ncc24)OCC2(COC2)C3)cc1 [Example 210, 2-(4-Fluorophenyl)-3-(1H-pyrazolo[3,4-b]pyridin-4-yl)spiro[5,7-dihydropyrazolo[5,1-b][1,3]oxazine-6,3′-oxetane]]
IC50 (human CSNK1D): 23 nM
IC50 [1]: < 0.5 nM

CC1(C)CCc2c(-c3ccnc(N)c3)c(-c3ccc(F)cn3)nn2C1 [Example 281, 4-[2-(5-Fluoro-2-pyridyl)-6,6-dimethyl-5,7-dihydro-4H-pyrazolo[1,5-a]pyridin-3-yl]pyridin-2-amine]
IC50 (human CSNK1D): 54 nM
IC50 [1]: 4 nM

Cc1cc(-c2c(-c3ccc(F)cn3)nn3c2CCC(F)(F)C3)c2cn[nH]c2n1 [Example 45, 4-(6,6-Difluoro-2-(5-fluoropyridin-2-yl)-4,5,6,7-tetrahydropyrazolo[1,5-a]pyridin-3-yl)-6-methyl-1H-pyrazolo[3,4-b]pyridine]
IC50 (human CSNK1D): 169 nM
IC50 [1]: 12 nM

Fc1ccc(-c2nn3c(c2-c2ccnc4[nH]ncc24)CC2(C3)CC2(F)F)cc1 (single isomer, unassigned) [Example 251, (*R)-1′,1′-Difluoro-2-(4-fluorophenyl)-3-(1H-pyrazolo[3,4-b]pyridin-4-yl)spiro[4,6-dihydropyrrolo[1,2-b]pyrazole-5,2′-cyclopropane]]
IC50 (human CSNK1D): 185 nM
IC50 [1]: 26 nM

Cc1cc(-c2c(-c3ccc(F)c(C)n3)nn3c2COC(C)(C)C3)c2c(C)n[nH]c2n1 [Example 393, 3-(3,6-Dimethyl-1H-pyrazolo[3,4-b]pyridin-4-yl)-2-(5-fluoro-6-methylpyridin-2-yl)-6,6-dimethyl-6,7-dihydro-4H-pyrazolo[5,1-c][1,4]oxazine]
IC50 (human CSNK1D): 2740 nM
IC50 [1]: 49 nM

[2H]C([2H])([2H])C1(C([2H])([2H])[2H])CC(O)c2c(-c3ccnc4[nH]ncc34)c(-c3ccc(F)cn3)nn2C1 (centres unmarked) [Example 366, 2-(5-Fluoropyridin-2-yl)-6,6-bis(methyl-d3)-3-(1H-pyrazolo[3,4-b]pyridin-4-yl)-4,5,6,7-tetrahydropyrazolo[1,5-a]pyridin-4-ol]
IC50 (human CSNK1D): 176 nM
IC50 [1]: 14 nM

Fc1ccc(-c2nn3c(c2-c2ccnc4[nH]ncc24)OCC2(C3)CC2(F)F)cc1 (single isomer, unassigned) [Example 477, (*R)-2,2-Difluoro-2′-(4-fluorophenyl)-3′-1H-pyrazolo[3,4-b]pyridin-4-yl)-5′H,7′H-spiro[cyclopropane-1,6′-pyrazolo[5,1-b][1,3]oxazine]]
IC50 (human CSNK1D): 33 nM
IC50 [1]: 6 nM

CC1(C)Cc2c(-c3c(F)cnc4[nH]ncc34)c(-c3ccc(F)cn3)nn2C1 [Example 236, 5-Fluoro-4-[2-(5-fluoro-2-pyridyl)-5,5-dimethyl-4,6-dihydropyrrolo[1,2-b]pyrazol-3-yl]-1H-pyrazolo[3,4-b]pyridine]
IC50 (human CSNK1D): 21 nM
IC50 [1]: 3 nM

Cc1nc2[nH]nc(C)c2c(-c2c(-c3ccc(F)cn3)nn3c2CC[C@@H]2C[C@@H]23)c1F (single isomer, unassigned) [Example 346, (5a*R,6a*S)-3-(5-Fluoro-3,6-dimethyl-1H-pyrazolo[3,4-b]pyridin-4-yl)-2-(5-fluoropyridin-2-yl)-5,5a,6,6a-tetrahydro-4H-cyclopropa[e]pyrazolo[1,5-a]pyridine]
IC50 (human CSNK1D): 173 nM
IC50 [1]: 25 nM

Fc1ccc(-c2nn3c(c2-c2c(F)cnc4[nH]ncc24)OCC2(C3)CC2(F)F)cc1 (centres unmarked) [Example 471, 2,2-Difluoro-3′-(5-fluoro-1H-pyrazolo[3,4-b]pyridin-4-yl)-2′-(4-fluorophenyl)-5′H,7′H-spiro[cyclopropane-1,6′-pyrazolo[5,1-b][1,3]oxazine]]
IC50 (human CSNK1D): 3 nM
IC50 [1]: 2 nM

O=C1OCCn2nc(-c3ccc(F)cn3)c(-c3ccnc4[nH]ncc34)c21 [Example 182, 2-(5-Fluoro-2-pyridyl)-3-(1H-pyrazolo[3,4-b]pyridin-4-yl)-6,7-dihydropyrazolo[5,1-c][1,4]oxazin-4-one]
IC50 (human CSNK1D): > 10000 nM
IC50 [1]: 241 nM

Cc1nc(-c2c(-c3ccc(F)cn3)nn3c2CC[C@@H]2C[C@@H]23)c2cn[nH]c2n1 (relative stereo) [Example 347, (5a*R,6a*S)-2-(5-fluoropyridin-2-yl)-3-(6-methyl-1H-pyrazolo[3,4-d]pyrimidin-4-yl)-5,5a,6,6a-tetrahydro-4H-cyclopropa[e]pyrazolo[1,5-a]pyridine]
IC50 (human CSNK1D): 573 nM
IC50 [1]: 35 nM

Cc1nc2[nH]ncc2c(-c2c(-c3ccc(F)cn3)nn3c2CC[C@]2(C3)CC2(F)F)c1F (single isomer, unassigned) [Example 332, (*R)-2,2-Difluoro-3′-(5-fluoro-6-methyl-1H-pyrazolo[3,4-b]pyridin-4-yl)-2′-(5-fluoropyridin-2-yl)-4′,5′-dihydro-7′H-spiro[cyclopropane-1,6′-pyrazolo[1,5-a]pyridine]]
IC50 (human CSNK1D): 12 nM
IC50 [1]: 1 nM

C[C@H]1CCCc2c(-c3ccnc4[nH]ncc34)c(-c3ccc(F)cc3)nn21 (single isomer, unassigned) [Example 40, (*S)-4-[2-(4-Fluorophenyl)-7-methyl-4,5,6,7-tetrahydropyrazolo[1,5-a]pyridin-3-yl]-1H-pyrazolo[3,4-b]pyridine]
IC50 (human CSNK1D): 41 nM
IC50 [1]: 4 nM

CCn1ncc2cc(-c3c(-c4ccc(F)cn4)nn4c3OCC(C)C4)cnc21 (centres unmarked) [Example 444, 3-(1-Ethyl-1H-pyrazolo[3,4-b]pyridin-5-yl)-2-(5-fluoropyridin-2-yl)-6-methyl-6,7-dihydro-5H-pyrazolo[5,1-b][1,3]oxazine]
IC50 (human CSNK1D): 1590 nM
IC50 [1]: 67 nM

Fc1ccc(-c2nn3c(c2-c2c(F)cnc4[nH]ncc24)OCC2(CC2)C3)nc1 [Example 459, 3′-(5-Fluoro-1H-pyrazolo[3,4-b]pyridin-4-yl)-2′-(5-fluoropyridin-2-yl)-5′H,7′H-spiro[cyclopropane-1,6′-pyrazolo[5,1-b][1,3]oxazine]]
IC50 (human CSNK1D): 80 nM
IC50 [1]: 4 nM

Cc1nc(-c2c(-c3ccc(F)cc3)nn3c2CC[C@@]2(C3)CC2(F)F)c2cn[nH]c2n1 (single isomer, unassigned) [Example 335, (*S)-2,2-Difluoro-2′-(4-fluorophenyl)-3′-(6-methyl-1H-pyrazolo[3,4-d]pyrimidin-4-yl)-4′,5′-dihydro-7′H-spiro[cyclopropane-1,6′-pyrazolo[1,5-a]pyridine]]
IC50 (human CSNK1D): 373 nM
IC50 [1]: 13 nM

Cc1cc(-c2c(-c3cscn3)nn3c2CCCC3)c2cn[nH]c2n1 [Example 32, 4-(3-(6-Methyl-1H-pyrazolo[3,4-b]pyridin-4-yl)-4,5,6,7-tetrahydropyrazolo[1,5-a]pyridin-2-yl)thiazole]
IC50 (human CSNK1D): 3020 nM
IC50 [1]: 60 nM

[2H]C([2H])([2H])OC[C@@]1(F)CCc2c(-c3cc(C)nc4[nH]ncc34)c(-c3ccc(F)cn3)nn2C1 (single isomer, unassigned) [Example 311, (*R)-4-(6-Fluoro-2-(5-fluoropyridin-2-yl)-6-((methoxy-d3)methyl)-4,5,6,7-tetrahydropyrazolo[1,5-a]pyridin-3-yl)-6-methyl-1H-pyrazolo[3,4-b]pyridine]
IC50 (human CSNK1D): 1410 nM
IC50 [1]: 92 nM

Fc1ccc(-c2nn3c(c2-c2ccnc4[nH]ncc24)C2CC2C3)nc1 (racemic) [Example 23, 2-(5-Fluoropyridin-2-yl)-3-(1H-pyrazolo[3,4-b]pyridin-4-yl)-3b,4,4a,5-tetrahydrocyclopropa[3,4]pyrrolo[1,2-b]pyrazole]
IC50 (human CSNK1D): 48 nM
IC50 [1]: 3 nM

Cc1cc(-c2c(-c3ccc(F)cn3)nn3c2CC(C)(C)C3)c2cc[nH]c2n1 [Example 235, 4-[2-(5-Fluoro-2-pyridyl)-5,5-dimethyl-4,6-dihydropyrrolo[1,2-b]pyrazol-3-yl]-6-methyl-1H-pyrrolo[2,3-b]pyridine]
IC50 (human CSNK1D): 8 nM
IC50 [1]: 1 nM
